The test system of this assay is B6C3F1 mice, B16 melanoma ip, median survival T/C. The experiment in a line: NCI In Vivo Anticancer Drug Screen. Data for tumor model B16 Melanoma (intraperitoneal) in B6C3F1 mice. Conditions: endpoint: median survival time, higher = longer survival. In outline:
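Antitumor effect was judged in mice with transplanted tumors by dividing the treated group's survival measure by that of vehicle controls.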

The mark [1] stands for this setting: dose: 100.0 mg/kg/injection, schedule: Q01DX009 (ip), vehicle: saline with Tween-80.
The mark [2] stands for this setting: dose: 200.0 mg/kg/injection, schedule: Q01DX009 (ip), vehicle: saline with Tween-80.
Where [3] appears, read: dose: 400.0 mg/kg/injection, schedule: Q01DX009 (ip), vehicle: saline with Tween-80.
Setting [4] is: dose: 12.5 mg/kg/injection, schedule: Q01DX009 (ip), vehicle: saline.
[5] abbreviates: dose: 25.0 mg/kg/injection, schedule: Q01DX009 (ip), vehicle: saline.
The mark [6] stands for this setting: dose: 50.0 mg/kg/injection, schedule: Q01DX009 (ip), vehicle: saline.
Where [7] appears, read: dose: 100.0 mg/kg/injection, schedule: Q01DX009 (ip), vehicle: Klucel (hydroxypropylcellulose) (HPC).
Where [8] appears, read: dose: 200.0 mg/kg/injection, schedule: Q01DX009 (ip), vehicle: Klucel (hydroxypropylcellulose) (HPC).
Where [9] appears, read: dose: 1.56 mg/kg/injection, schedule: Q01DX009 (ip), vehicle: saline with Tween-80.
Where [10] appears, read: dose: 3.12 mg/kg/injection, schedule: Q01DX009 (ip), vehicle: saline with Tween-80.
The mark [11] stands for this setting: dose: 6.25 mg/kg/injection, schedule: Q01DX009 (ip), vehicle: saline with Tween-80.
[12] abbreviates: dose: 6.25 mg/kg/injection, schedule: Q01DX009 (ip), vehicle: saline.
Setting [13] is: dose: 25.0 mg/kg/injection, schedule: Q01DX009 (ip), vehicle: saline with Tween-80.
Where [14] appears, read: dose: 50.0 mg/kg/injection, schedule: Q01DX009 (ip), vehicle: saline with Tween-80.

Several values for one entry are separate records, joined by “and”; a condition that tells them apart may be missing. Equal entries are not always repeated. Inconclusive results and toxic doses are left out. Where a SMILES comes first, the peptide text is derived from it. [ ]: non-standard residue; d: D form. The star is where a group is joined. Nle = CCCC[CH](N)C(=O)O; Cbz = O=C(OCc1ccccc1)*

Consider `C=CCNC(=O)c1ccccc1SC(C)=O`, for which the T/C is 101 % of control (dose: 50.0 mg/kg/injection, schedule: Q01DX009 (ip), vehicle: saline + Tween-80 + alcohol); 112 % of control and 103 % of control (dose: 100.0 mg/kg/injection, schedule: Q01DX009 (ip), vehicle: saline + Tween-80 + alcohol); 91 % of control under setting [1]; 119 % of control (dose: 200.0 mg/kg/injection, schedule: Q01DX009 (ip), vehicle: saline + Tween-80 + alcohol); 104 % of control under setting [2]; 114 % of control (dose: 400.0 mg/kg/injection, schedule: Q01DX009 (ip), vehicle: saline + Tween-80 + alcohol). In addition, the T/C under setting [3] is 116 % of control.
`CC(Br)C(=O)NC(Cc1ccccc1)C(=O)O` (configuration not stated): the T/C is 104 % of control under setting [4], 95 % of control under setting [5] and 102 % of control under setting [6].
Regarding `NC(Cn1ccc(=O)c(O)c1)C(=O)O` (configuration not stated), the T/C under setting [4] is 107 % of control; the T/C under setting [5] was 111 % of control; the T/C under setting [6] is 101 % of control; the T/C (dose: 100.0 mg/kg/injection, schedule: Q01DX009 (ip), vehicle: saline) was 105 % of control; the T/C (dose: 200.0 mg/kg/injection, schedule: Q01DX009 (ip), vehicle: saline) is 105 % of control.
Take `CCCCC(NC(=O)OCc1ccccc1)C(=O)NC(C(=O)O)C(C)C` (configuration not stated) (Cbz-[Nle]-Val-OH; configuration not given here): the T/C is 108 % of control under setting [7] and 105 % of control under setting [8].
Regarding `CC1=C(C)C(=O)O[C@@H]([C@](C)(O)[C@]2(O)CC[C@@]3(O)[C@@H]4C[C@H]5O[C@]56CC=CC(=O)[C@]6(C)[C@H]4CC[C@]23C)C1`, the T/C by setting is: under setting [9], 121 % of control; under setting [10], 108 % of control; under setting [11], 120 % of control; under setting [12], 120 % of control; (dose: 12.5 mg/kg/injection, schedule: Q01DX009 (ip), vehicle: saline with Tween-80) 88 % of control; under setting [4], 153 % of control. Under setting [5], the T/C was 175 % of control.
Regarding `CN(C)/N=N/c1nc[nH]c1C(N)=O`, the T/C is 104 % of control (dose: 25.0 mg/kg/injection, schedule: Q01DX009 (ip), vehicle: distilled water + Tween-80); 100 % of control under setting [13]; 119 % of control under setting [14]; 109 % of control (dose: 60.0 mg/kg/injection, schedule: Q04DX003 (ip), vehicle: carboxymethylcellulose (CMC)); 120 % of control (dose: 60.0 mg/kg/injection, schedule: Q04DX003 (ip), vehicle: saline); 102 % of control (dose: 80.0 mg/kg/injection, schedule: Q04DX003 (ip), vehicle: saline). Also, the T/C was 109 % of control (dose: 100.0 mg/kg/injection, schedule: Q01DX009 (ip), vehicle: distilled water + Tween-80); 113 % of control (dose: 120.0 mg/kg/injection, schedule: Q04DX003 (ip), vehicle: carboxymethylcellulose (CMC)); 118 % of control (dose: 180.0 mg/kg/injection, schedule: Q04DX003 (ip), vehicle: carboxymethylcellulose (CMC)); 120 % of control (dose: 180.0 mg/kg/injection, schedule: Q04DX003 (ip), vehicle: saline); 93 % of control under setting [2].
Consider `Cc1cc2c(C(C)C)c(O)c(O)c(C=NCCO)c2c(O)c1-c1c(C)cc2c(C(C)C)c(O)c(O)c(C=NCCO)c2c1O`, for which the T/C is 109 % of control and 111 % of control and 103 % of control under setting [13]; 108 % of control and 109 % of control and 91 % of control under setting [14]; 109 % of control and 121 % of control and 101 % of control under setting [1]; 114 % of control and 120 % of control under setting [2]; 153 % of control under setting [3].
Regarding `CC1OC2CC(=O)OC2C2=C1C(=O)c1cc(-c3cc(O)c4c(c3)C(=O)C3=C(C4=O)C4OC(=O)CC4OC3C)cc(O)c1C2=O` (configuration not stated), under “dose: 0.5 mg/kg/injection, schedule: Q01DX009 (ip), vehicle: other”, the T/C is 90 % of control.
For `Cc1noc(N)c1N`, the T/C (dose: 12.0 mg/kg/injection, schedule: Q01DX009 (ip), vehicle: water) is 94 % of control; the T/C (dose: 25.0 mg/kg/injection, schedule: Q01DX009 (ip), vehicle: water) is 100 % of control; the T/C (dose: 50.0 mg/kg/injection, schedule: Q01DX009 (ip), vehicle: water) is 106 % of control; the T/C (dose: 100.0 mg/kg/injection, schedule: Q01DX009 (ip), vehicle: water) is 100 % of control; the T/C (dose: 200.0 mg/kg/injection, schedule: Q01DX009 (ip), vehicle: water) is 96 % of control; the T/C (dose: 400.0 mg/kg/injection, schedule: Q01DX009 (ip), vehicle: water) is 90 % of control.
For `ClCCCN1CCN(CCCCl)CC1`, the T/C is 109 % of control and 98 % of control (dose: 6.25 mg/kg/injection, schedule: Q01DX009 (ip), vehicle: distilled water + alcohol); 102 % of control and 104 % of control (dose: 12.5 mg/kg/injection, schedule: Q01DX009 (ip), vehicle: distilled water + alcohol); 108 % of control and 105 % of control (dose: 25.0 mg/kg/injection, schedule: Q01DX009 (ip), vehicle: distilled water + alcohol); 118 % of control and 107 % of control (dose: 50.0 mg/kg/injection, schedule: Q01DX009 (ip), vehicle: distilled water + alcohol); 115 % of control and 118 % of control (dose: 100.0 mg/kg/injection, schedule: Q01DX009 (ip), vehicle: distilled water + alcohol).
As to `CN1c2c(nc(N)[nH]c2=O)NCC1CCNc1ccc(C(=O)NC(CCC(=O)O)C(=O)O)cc1` (configuration not stated), the T/C is 105 % of control (dose: 50.0 mg/kg/injection, schedule: Q01DX009 (ip), vehicle: sodium bicarbonate) and 114 % of control (dose: 100.0 mg/kg/injection, schedule: Q01DX009 (ip), vehicle: sodium bicarbonate).
With `CC[C@]1(O)C[C@H]2CN(CCc3c([nH]c4ccccc34)[C@@](C(=O)OC)(c3cc4c(cc3OC)N(C=O)[C@H]3[C@@](O)(C(=O)OC)[C@H](OC(C)=O)[C@]5(CC)C=CCN6CC[C@]43[C@@H]65)C2)C1`, the T/C is, setting by setting: (dose: 0.06 mg/kg/injection, schedule: Q01DX009 (ip), vehicle: saline) 160 % of control; (dose: 0.12 mg/kg/injection, schedule: Q01DX009 (ip), vehicle: saline) 159 % of control and 176 % of control; (dose: 0.25 mg/kg/injection, schedule: Q01DX009 (ip), vehicle: saline) 171 % of control and 196 % of control; (dose: 0.5 mg/kg/injection, schedule: Q01DX009 (ip), vehicle: saline) 190 % of control; (dose: 0.5 mg/kg/injection, schedule: Q01DX009 (ip), vehicle: water) 108 % of control; (dose: 31.25 micrograms/kg/injection, schedule: Q01DX009 (ip), vehicle: water) 154 % of control. Besides, the T/C runs as follows: (dose: 62.5 micrograms/kg/injection, schedule: Q01DX009 (ip), vehicle: water) 186 % of control; (dose: 125.0 micrograms/kg/injection, schedule: Q01DX009 (ip), vehicle: water) 193 % of control; (dose: 250.0 micrograms/kg/injection, schedule: Q01DX009 (ip), vehicle: water) 227 % of control.
For the molecule `O=C1CSC(c2cccs2)N1c1nncs1` (configuration not stated), the T/C is 102 % of control (dose: 25.0 mg/kg/injection, schedule: Q01DX009 (ip), vehicle: Klucel (hydroxypropylcellulose) (HPC)); 92 % of control (dose: 50.0 mg/kg/injection, schedule: Q01DX009 (ip), vehicle: Klucel (hydroxypropylcellulose) (HPC)); 92 % of control under setting [7]; 97 % of control under setting [8].
On to `[Cl][Hg][CH]1CCC2OC1CC[CH]2[Hg][Cl]` (configuration not stated), for which the T/C was 97 % of control under setting [9], 97 % of control under setting [10] and 101 % of control under setting [11].
Consider `O=C1C(Cl)=C(Cl)C(=O)C2=C1C1c3ccccc3C2c2ccccc21`, for which the T/C is 94 % of control under setting [1] and 86 % of control under setting [2].
With `CCN(CC)CC[n+]1ccc2c(C)c3[nH]c4ccc(O)cc4c3c(C)c2c1`, the T/C is 175 % of control (dose: 3.12 mg/kg/injection, schedule: Q01DX009 (ip), vehicle: saline); 151 % of control and 171 % of control under setting [12]; 151 % of control (dose: 6.25 mg/kg/injection, schedule: Q01DX009 (ip), vehicle: suspension in saline).
Consider `Sc1ccccc1-n1c(-c2ccccc2)ccc1-c1ccccc1`, for which the T/C by setting is: under setting [14], 104 % of control; under setting [1], 87 % of control.
